We go through one compound from patent US20240425807A1, “MANUFACTURING METHOD OF MIXED POWDER, MIXED POWDER, POWDER, AND POWDER MEDIUM” (FUJIFILM Corporation, priority 2022, published 2024).

A short description of data set [1]: Liquid property (pH) of solution obtained in solubility evaluation. The format is physicochemical. The conditions noted are these: pH of the solution obtained in the solubility evaluation (tyrosine 0.44 g/L in distilled water). As for the experimental part: A pH of the solution obtained in the evaluation of solubility was evaluated. Liquid property was evaluated according to the following evaluation standard.

A short description of data set [2]: Overall evaluation based on solubility and liquid property. The format is physicochemical. To be noted: combined from solubility and liquid property.

Consider `N[C@@H](Cc1ccc(O)cc1)C(=O)O` [Comparative Example 1, L-tyrosine], for which, in data set [1], the Liquid property result is given as “Neutral (pH of 6.0 to 8.5)”. Also, the Overall evaluation entry in data set [2] is on record as “E (the solution was still turbid even after 1 hour, and/or the pH was other than neutral)”.
